Experiments:
[1] = system: Iba-1; assay: LPS in vivo model: brain microgliosis by Iba-1 immunofluorescence; set-up: species or system mouse; conditions: 20 mg·kg^-1 i.p.; 4 and 24 h after LPS
Experimental: Immunofluorescence labelling in in vitro and in vivo samples was performed as described in [Luengo, Enrique et al. "Implication of type 4 NADPH oxidase (NOX4) in tauopathy." Redox biology vol. 49 (2022): 102210. doi:10.1016/j.redox.2021.102210 ].
(§1) Example 2.3.1. Treatment with Compound 1 reduces LPS-induced cytokine expression and release in mouse brain. Mice were treated i.p. with a daily dose of 20 mg·kg^-1 of Compound 1 for 4 consecutive days. On the last day, LPS (0.5 mg·kg^-1) was injected i.p. one h after the compound. Thereafter, behavioural, and biochemical outcomes were analysed at different time points.
Example 2.3.2. Treatment with Compound 1 reduces LPS-induced microgliosis in mouse brain. Microglial cells constitute the immune cells of our brain; therefore, they play a key role in regulating neuroinflammation. Microgliosis was evaluated using Iba-1 as a microglial marker in immunofluorescence experiments 4 h and 24 h after the inflammatory stimuli (LPS).

[2] = system: hyperphosphorylated tau; assay: Hyperphosphorylated tau (AT8 immunofluorescence) in primary neurons treated with AAV-hTauP301L; format: cell-based, mouse; conditions: treatment every other day for 8 days, compound 1 at 30 µM
[3] = system: proinflammatory cytokines; assay: LPS in vivo model: brain cytokine mRNAs by qRT-PCR; set-up: species or system mouse; conditions: 20 mg·kg^-1 i.p. daily for 4 days; 4 h and 24 h after LPS 0.5 mg·kg^-1 i.p.
Experimental: • Figure 1. Compound 1 reduces the inflammatory response against LPS in vitro. (A) Nitric oxide (NO) production in BV2 cells detected by DAF 24 h after LPS exposure and normalized by cell viability measured by MTT (n = 9). (B) qRT-PCR of TNFα (n = 9) in BV2 cells after 24 h LPS exposure. Sulforaphane (Sfn) was used as a positive control. […] Compound 1 decreases the inflammatory process 4 and 24 hours after LPS administration in vivo. Compound 1 (20 mg·kg^-1) daily was injected i.p. four days before the i.p. LPS (0.5 mg·kg^-1) administration. […] Compound 1 ameliorates the resolution of the inflammatory process triggered by LPS. […] (B) Locomotion activity measured by line crossings of an imaginary grid. […] Compound 1 reduced tau seeding in HEK-293 tau FRET biosensor measured by flow cytometer (C). […] Representative images of hyperphosphorylated tau intensity measured by AT8 and AT180 antibodies in three different regions of the hippocampus (GD, CA3 and CA1) (n = 11-12). (B) Quantification AT8 intensity, normalized to CA3 intensity of Sham animals. (C) Quantification of AT180 intensity, normalized to CA3 intensity of Sham animals (n = 9-12). […] Quantification of sarkosyl soluble (n = 10) (C) and insoluble species (D) using AT8 antibody (n = 10). Quantification of sarkosyl soluble (n = 10) (E) and insoluble species (F) using AT180 antibody (n = 10). […]

[4] = LPS in vivo model: sickness behaviour (body weight, locomotion, novel object recognition); set-up: species or system mouse; conditions: 20 mg·kg^-1 i.p.
Experimental: The LPS in vivo model was induced, sickness behaviour evaluated (locomotion test and novel object recognition test) and cytokines measured by qPCR as described by [Fernández-Mendivil, Cristina et al. "Protective role of microglial HO-1 blockade in aging: Implication of iron metabolism." Redox biology vol. 38 (2021): 101789. doi:10.1016/j.redox.2020.101789]. The panel of mouse cytokines, chemokines, and growth factors were measured by Luminex xMAP technology for multiplexed quantification at Evetechnologies (https://www.evetechnologies.com/)
as §1
Example 2.3.3. Treatment with Compound 1 reduces LPS-induced sickness behaviour. Peripheral administration of LPS produces neuroinflammation and induces a "sickness behaviour" in mice that is characterized by body weight loss, reduction of the locomotor activity and a cognitive decline.

COc1ccc2c(c1)CC(c1c[nH]c3ccc(OC)cc13)N2 (stereo not shown) [Compound 1, 5-Methoxy-3-(5-methoxyindolin-2-yl)-1H-indole]
mean fluorescence intensity of Iba-1 per cell [1]: restored to saline levels | AT8 intensity levels [2]: reduced | IL-1β mRNA in brain [3]: reduced | TNFα mRNA in brain [3]: reduced | Locomotion, line crossings of an imaginary grid ([4]; 4 and 8 h after LPS exposure, values similar to saline animals): improved | body weight loss ([4]; compared to LPS-vehicle treated animals): less reduction of the body weight loss | cognitive decline (NOR test, discrimination index) ([4]; compared to vehicle-LPS treated animals): did not show cognitive decline

Reference: patent EP4467137A1, “TREATMENT OF FRONTOTEMPORAL DEMENTIA OR FRONTOTEMPORAL LOBAR DEMENTIA” (Universidad Autónoma de Madrid, priority 2023, dated 2024)
